# Patent US20230348453A1, “HALOGENATED-HETEROARYL AND OTHER HETEROCYCLIC KINASE INHIBITORS, AND USES THEREOF” (iOmx Therapeutics AG, priority 2020, published 2023)
# Columns and labels:
# [1] = system: NFKB activity in reporter PANC-1 cells; assay: NFKB luciferase reporter activity in PANC-1 cells; format: cell-based; conditions: Homo sapiens; PANC-1 reporter cells, +10 ng/ml rHuTNF for 8 h
# Description: Luciferase activity was normalized to PANC-1 cells treated with rHuTNF without inhibitor (DMSO only). Y-axis=NFKB activity (%). […] Whole cell lysates were analyzed in a Meso Scale Discovery (MSD) assay with anti-HDAC4 capture and anti-pHDAC4 detection antibodies. HDAC4 phosphorylation was normalized to untreated PANC-1 cells (DMSO only). Y-axis=HDAC4 phosphorylation (%). X-axis=Compound concentration (nM).
# FIG. 28: depicts: (A) and (B) effect of compound E9 on NFKB activity. […] Luciferase activity was normalised to cells treated with rHuTNF without inhibitor (DMSO only). Y-axis=NFKB activity (%). X-axis=compound concentration (nM); Bar “A” viability without compound and without TNF; bar “B” viability without compound and with 10 ng/ml TNF; and (C) Effect of compound E9 on HDAC4 phosphorylation. […] Whole cell lysates were analysed in a Meso Scale Discovery (MSD) assay with anti-HDAC4 capture and anti-pHDAC4 detection antibodies. HDAC4 phosphorylation was normalized to untreated PANC-1 cells (DMSO only). Y-axis=HDAC4 phosphorylation (%). X-axis=Compound concentration (nM).
# MC38 tumour = assay: MC38 syngeneic tumour model, tumour growth and survival; format: in vivo, mice; conditions: E9 24 mg/kg BID compared to dasatinib 30 mg/kg QD
# Description: Error bars SEM. X-axes: Days. Statistical significance was calculated with two-way ANOVA analysis including Tukey's multiple comparison analysis. ***p<0.001; (B) Body weight kinetics of the mice in (A). Y-axis: Mean body weight change (%).
# Y-axis=Mean tumour volume (mm3). […] X-axis=Days. […] X-axis: Days.
# Left hand column=compound treatment group; and right hand column=vehicle treatment group. Y axes=Tumour volume (mm3); X axes=Days after inoculation.
# FIG. 29: depicts the effect of compound E9 and anti PD-1 mAB (alone or in combination) on in vivo tumour growth (mean+/−SEM) in a MC38 syngeneic tumour model. (A) Y axes=Tumour volume (mm3); X axes=Days after start of therapy. Vehicle+anti PD-1 mAB (squares), vehicle+mIgG1e ctr (circles), E9+anti PD-1 mAB (inverted triangles), and E9+mIgG1e ctr (triangles). (B) Median overall survival.) Y axes=Probability of survival (%); X axes=Days after start of therapy. Vehicle+anti PD-1 mAB (grey/dashed), vehicle+mIgG1e ctr (black/solid), E9+anti PD-1 mAB (grey/solid), and E9+mIgG1e ctr (black/dashed). […] (C) E9 25 mg/kg BID; (D) aPD-1 2.5 mg/kg; (E) E9 50 mg/kg BID+aPD-1 2.5 mg/kg; and (F) vehicle.
# [2] = Human hepatocyte stability; format: in vitro ADME
# [3] = Mouse hepatocyte stability; format: in vitro ADME; conditions: hepatocytes
# [4] = system: MC38 colorectal carcinoma tumours; assay: MC38 syngeneic mouse model, E9 and anti-PD-1 alone and in combination (Example 10); format: in vivo, C57Bl/6N mice; conditions: E9 25 mg/Kg twice daily and/or anti-PD-1 mAb
# [5] = in vivo, po, 30 mg/kg
# [6] = female, C57BL/6, mouse, in vivo, 7 days
# in vivo = conditions: male, CD1, mouse, po, 30 mg/kg
# in vitro = conditions: human, microsomes
# SIK3 = SIK3 (Homo sapiens (Human), UniProt Q9Y2K2); assay: SIK3 kinase inhibition (IC50); conditions: read-out: Kinase: IC50 (nM) SIK3
# [7] = Murine plasma protein binding
# [8] = MDCK wild type permeability/efflux; conditions: dog
# [9] = Screening PK in mice after 30 mg/kg po; conditions: for concentration at 6 h: mice, 30 mg/kg po
# [10] = system: HDAC4 phosphorylation in PANC-1 cells; assay: HDAC4 phosphorylation (Meso Scale Discovery assay); conditions: 10 ng/mL rHuTNF, 3 h
# [11] = system: MC38 murine tumour cell line; assay: TNF-sensitised cell viability assay (CellTiter-Glo); conditions: Mus musculus
# HCT116 cells = assay: as above; conditions: Homo sapiens, HCT-116, read-out: HCT116 IC50 (at 10 ng/ml rHuTNF)
# [12] = system: NFKB activity in PANC-1 cells; assay: TNF-induced NFKB activity (NFKB-dependent luciferase reporter); conditions: 10 ng/ml rHuTNF, PANC-1 reporter cells
# [13] = system: NFKB activity in MC38 cells; assay: as above; conditions: 10 ng/ml rMuTNF
# [14] = total plasma concentration at 30 mg/kg p.o dose, fold of C7 (C7 = 1×)
structure (smiles),measurement,setting,value
"Cc1nc(Nc2ncc(C(=O)Nc3c(CF)csc3Cl)s2)cc(N2CCN(C)CC2)n1 [Compound E9, N-(2-chloro-4-(fluoromethyl)thiophen-3-yl)-2-((2-methyl-6-(4-methylpiperazin-1-yl)pyrimidin-4-yl)amino)thiazole-5-carboxamide]",EC50,[1],405 nM
same,tumour growth inhibition,MC38 tumour,superior and more uniform tumour growth inhibition
same,"Human hepatocyte stability, Half-life",[2],24 min
same,half-life,"[2]; human, hepatocytes, read-out: Human hepatocyte stability, Half-life",21 to 30 min
same,microsomal CLint,"[2]; human, hepatocytes, read-out: Human hepatocyte stability, Intrinsic clearance",58 µL/min/mg
same,half-life,[3],65 min
same,microsomal CLint,"[3]; read-out: Mouse hepatocyte stability, Intrinsic clearance",21 µL/min/mg
same,TGI,[4],73%
same,"% AUCextrap, Free","[5]; male, CD1, mouse",0.49%
same,"% AUCextrap, Total","[5]; male, CD1, mouse",0.49%
same,"AUCinf (nM*h), Free","[5]; male, CD1, mouse",239.92 nM·h
same,"AUClast (nM*h), Free","[5]; male, CD1, mouse",238.75 nM·h
same,"Rsq, Free",[5]; mouse,0.84
same,"Rsq, Total",[5]; mouse,0.84
same,DLT@BID dosing,[6],n.d. @50 mg/kg
same,DLT@QD dosing,[6],n.d. @50 mg/kg
same,HRD in vivo @BID,[6],50 mg/kg
same,HRD in vivo @QD,[6],50 mg/kg
same,AUC(0-inf),in vivo,9.63 µM·h
same,AUC(0-t),in vivo,9.58 µM·h
same,Cmax,in vivo,2690 ng/mL
same,MRT last,in vivo,203 min
same,Tmax,in vivo,15 min
same,half-life,in vivo,166 min
same,half-life,in vitro,11 min
same,microsomal CLint,in vitro,131 µL/min/mg
same,IC50,SIK3,< 20 nM
same,"Murine plasma protein binding, Percentage unbound (%)",[7]; Table 5.1A,1%
same,recovery at 4 h,"[7]; mouse, plasma",88%
same,Papp,[8],10 ×10⁻⁶ cm/s
same,efflux ratio,[8],1
same,fold improvement of free serum concentration over C7,"[9]; mouse, in vivo",2 fold
same,fold improvement of total serum concentration over C7,"[9]; mouse, in vivo",4.5 fold
same,Cmax at 2 h,"[9]; mouse, plasma, po, 30 mg/kg",426 ng/mL
same,concentration at 6 h,"[9]; mouse, plasma, po, 30 mg/kg, Free plasma concentration after 6 h (nM)",7.7 nM
same,concentration at 6 h,"[9]; mouse, plasma, po, 30 mg/kg, Plasma concentration after 6 h (nM)",309 nM
same,"AUC0-last (nM*h), relative to C7",[9]; [14],8.2×
same,"C max (ng/ml), relative to C7",[9]; [14],5.6×
same,"MRT0-last (h), relative to C7",[9]; [14],1.2×
same,"t1/2 (h), relative to C7",[9]; [14],2×
same,Inhibition of HDAC4 phosphorylation,[10],++
same,IC50,"[11]; MC-38, read-out: MC38 IC50 (at 100 ng/mL rMuTNF)",< 100 nM
same,EC50,"[11]; MC-38, read-out: mean EC50 of sensitising MC38 tumour cells to TNF-mediated killing",< 100 nM
same,IC50,HCT116 cells,< 100 nM
same,Inhibition of NFKB activity (PANC-1),[12],++
same,Inhibition of NFKB activity (MC38),[13],++
